# Assay results published in patent publication US20200164005A1, “PHARMACEUTICAL COMPOSITIONS OF A BILE ACID DERIVATIVE AND MICROBIOME AND USES THEREOF” (Intercept Pharmaceuticals, Inc., priority 2017, published 2020).
# Legend:
# [1] = test system: MetaCyc pathways of the gut microbiome; experiment: MetaCyc pathway differential abundance analysis of stool metagenome; format: in vivo, human
# Description: HUMAnN2 (Abubucker et al., PLoS Comput. Biol. 8, e1002358 (2012)) was used to calculate gene and pathway abundance from metagenomic sequencing data. Uniref50 (UniProt® Consortium, Nucleic Acids Res. 43, D204 (2015)) was used for gene family definition. MetaCyc (Caspi et al., Nucleic Acids Res. 42, D459 (2014)) and KEGG (Kanehisa and Goto, Nucleic Acids Res. 28, 27 (2000); Kanehisa et al., Nucleic Acids Res. 44, D457 (2016)) were used for pathway analysis. • Gene family identification: Initially, 989251 gene families were identified from the dataset by HUMAnN2. Quantile normalization was implemented. For each sample, the RPK values were added up till 90% percentile of all genes (normalization factor, nf). RPK value of each gene in each sample was then divided by the nf of the sample, and multiplied with the mean of nf of all samples. 683270 uncharacterized genes were removed. Genes undetected in over 90% of samples (101994) were removed. 203987 genes were kept. Due to the large number of genes identified, 25% of the most varying genes were selected for further analysis. The most varying genes were defined by the coefficient variation (cv=sd/mean) of log 2 transformed value. • MetaCyc pathway identification: HUMAnN2 identified 567 MetaCyc pathways from the dataset. Quantile normalization was then performed. For each sample, the abundance values were added up till 90% percentile of all pathways (normalization factor, nf). Each pathway abundance in each sample was divided by the nf of the sample, and then multiplied with the mean of nf for all samples. The low abundance pathways (52), which were not detected on over 90% of all samples, were removed. 515 high quality MetaCyc pathways were kept for further analysis. • KEGG pathway identification: HUMAnN2 identified 160 KEGG pathways from the dataset. Quantile normalization was applied, and low abundance pathways were removed. 66 high quality KEGG pathways were kept for further analysis.
# gene abundance˜aov(day*OCAdose+error(subject ID)) • Pathway differential abundance analysis: For each of the identified pathways, repeated measure ANOVA was also performed to study the time effect and OCA dose effect on pathway abundance change.
# pathway abundance˜aov(day*OCAdose+error(subject ID)) • FGF19 analysis: The GEE model was applied in order to study the relationship of FGF19 change with the microbiome, gene family, and the pathway abundance change over time. The R function geeglm from R package geepack was used for gee modeling. Both FGF19 level and species/gene/pathway relative abundance were log 2 transformed before applying GEE model. […]
# [2] = target: T1, farnesoid X receptor (FXR) (Homo sapiens, UniProt Q96RI1); conditions: cited from earlier work
# T1 sequence (Q96RI1 1-486): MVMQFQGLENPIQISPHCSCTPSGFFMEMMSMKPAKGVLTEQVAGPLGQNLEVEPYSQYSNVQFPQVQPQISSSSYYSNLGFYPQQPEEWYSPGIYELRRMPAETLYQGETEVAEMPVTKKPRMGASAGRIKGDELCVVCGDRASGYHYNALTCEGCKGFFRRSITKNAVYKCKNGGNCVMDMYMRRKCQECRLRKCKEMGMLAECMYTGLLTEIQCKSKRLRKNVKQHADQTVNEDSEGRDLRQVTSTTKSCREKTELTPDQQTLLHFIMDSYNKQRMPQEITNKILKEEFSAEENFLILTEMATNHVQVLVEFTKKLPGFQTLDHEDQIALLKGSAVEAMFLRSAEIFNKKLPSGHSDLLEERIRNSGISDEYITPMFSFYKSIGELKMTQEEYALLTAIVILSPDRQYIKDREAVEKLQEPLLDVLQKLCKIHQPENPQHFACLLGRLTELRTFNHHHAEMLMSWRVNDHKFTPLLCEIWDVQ
# [3] = test system: endogenous bile acids; experiment: Luminal bile acid concentrations in small intestine and feces of OCA-treated mice; format: in vivo
# Procedure: FIG. 54: Bar graphs showing the concentration of taurocholic acid and taurodeoxycholic acid at proximal small bowel and distal small bowel, or in feces, in samples collected from mice treated with control (methylcellulose) or OCA (10 mg/kg/day) for 14 days, followed by no treatment for additional 14 days. Statistically significant differences based on two-tailed Student t-tests are noted: p<0.05 (*) and p<0.01 (**).
# FIGS. 59A-59E: Effect of OCA administration on luminal bile acid concentrations in the murine small intestine and feces. […] Mean+SE, *p<0.05, **p<0.01, ***p<0.001. FIGS. 59D-59E show heatmaps of luminal bile acid concentrations in the proximal (FIG. 59D) and distal (FIG. 59E) small intestine.
# For example, Streptococci represent as much as 20% of the human small intestinal microbiota by 16S tagged sequencing (Dlugosz et al., Sci Rep-Uk, 5 (2015)); El Aidy et al., Curr Opin Biotechnol., 32, 14-20 (2015)). Some of these bacteria are environmental organisms used in the manufacturing of food introduced into the small intestine with diet, including Streptococcus thermophilus, Bifidobacterium breve, Lactobacillus casei, and Lactococcus lactis (Brigidi et al., International Journal of Food Microbiology, 81, 203-209 (2003); Derrien and van Hylckama Vlieg, Trends Microbiol., 23, 354-366 (2015); Stiles and Holzapfel, International Journal of Food Microbiology, 36, 1-29 (1997)). To determine whether OCA treatment can alter the gut microbiota composition specifically in the small intestine, mice were treated with OCA for 14 days, the microbiota composition in the proximal and distal small intestine, as well as the stool, and quantified bile acids were characterized. Since OCA was prepared in methylcellulose, an additional methylcellulose control group was included due to its previously described effect on fecal bile acid levels (Cox et al., FASEB J 27, 692-702 (2013)).
smiles,measurement,setting,value
"CC[C@H]1[C@@H](O)[C@@H]2[C@H](CC[C@]3(C)[C@@H]([C@H](C)CCC(=O)O)CC[C@@H]23)[C@@]2(C)CC[C@@H](O)C[C@@H]12 [OCA, 3α,7α-dihydroxy-6α-ethyl-5β-cholan-24-oic acid]",pathways associated with nucleotide and amino acid biosynthesis,[1]; OCA treatment,enriched
same,number of MetaCyc pathways differentially abundant over time,"[1]; out of 515, FDR<0.05 for time effect",41
same,number of MetaCyc pathways with significant time effects,"[1]; repeated measure ANOVA, FDR<0.01, Example 7",135
same,OCA dose effect on MetaCyc pathway abundance,"[1]; repeated measure ANOVA, FDR<0.05",No OCA dose effect or OCA dose×day interaction was observed
same,potency as FXR agonist relative to the endogenous FXR agonist CDCA,[2],100 fold
same,OCA in the small intestinal lumen of treated mice,"[3]; 10 mg/kg OCA, 14 days",detectable
same,contribution of OCA to the total concentration of bile acids in the small intestinal lumen,"[3]; 10 mg/kg OCA, 14 days",contributed minimally
same,luminal endogenous primary bile acids in the feces,"[3]; 10 mg/kg OCA, 14 days",no effect
same,luminal endogenous primary bile acids in proximal and distal small intestine,"[3]; 10 mg/kg OCA, 14 days, greatest in proximal small intestine",significant reduction
same,luminal cholic and taurocholic acids,"[3]; 10 mg/kg OCA, 14 days, small intestine",largest consistent decreases
same,levels of taurocholic and taurodeoxycholic acids in proximal and distal small intestine,"[3]; OCA 10 mg/kg/day, day 14",reduction
same,levels of taurocholic and taurodeoxycholic acids in the colon (feces),"[3]; OCA 10 mg/kg/day, day 14",not in the colon (feces)
same,levels of taurocholic and taurodeoxycholic acids in the proximal small intestine after cessation,"[3]; day 28, two weeks after cessation of OCA",continued reduction
